For 92 compounds, melting point results are on record in a melting point compilation (Tetko et al.; mined from patent text by program, amines drawn as free bases though some values may be those of a salt).

What is called melting point is the temperature of the solid-liquid transition.

In the case of `Brc1cnc(N=C(c2ccccc2)c2ccccc2)s1`, the melting point is 109 °C.
For the compound `CCN=C1SC(=NOC(=O)N(C)SC(Cl)(Cl)Cl)C(C)(C)S1`, the melting point was in the range of 69 to 71 °C.
The compound `COc1c2c(c(OC)c(OC)c1OC)CC(CCCCOc1ccc(C(=O)N(C)C)cc1)C2` returned a melting point of 99 to 102 °C.
Then `O=C(O)c1[nH]cc(OCc2ccccc2)c(=O)c1Br`, with 120 °C.
Take `COc1ccc(S(=O)(=O)N2C(=O)C(OC(=O)Oc3ccccc3)(c3ccccc3OC(F)(F)F)c3cc(Cl)ccc32)c(OC)c1` (configuration not stated): the melting point is 203 to 204 °C.
As to `CNC(=S)N(C)NC(=O)c1cccs1`, the melting point was 176 to 178 °C.
For `N#CN1CCC2(CC1)CN(c1ccccc1[N+](=O)[O-])c1cc(Cl)ccc12` the value was 163 to 165 °C.
In turn, `O=C(c1ccccc1)c1cccc(NC(=O)C(Cl)CCl)c1` (configuration not stated) registered a melting point of 92 °C.
As for `COc1ccc(Cl)cc1C1(F)C(=O)Nc2cc(C(F)(F)F)cc(C(F)(F)F)c21` (configuration not stated), the melting point fell in the range of 262 to 264 °C.
For the compound `COc1ccc(-c2nc(-c3ccccc3)no2)cc1`, the melting point lay in the range of 97 to 98 °C.
The compound `CCn1nc2c(N)nc3ccccc3c2c1CC(C)(C)C` had a melting point of 240 °C.
With `O=C(O)C1=Cc2ccc(O)cc2CC1`, the melting point lay in the range of 195 to 197 °C.
For `Cc1csc(C(=O)C2C(=O)N(C(N)=O)c3ccc(Cl)nc32)c1` (configuration not stated) the value was 227 to 228 °C; for `C=CCOc1cc(OC)ccc1C(=O)c1ccccc1`, 40 °C; for `COc1cc(COc2nn(-c3ccccc3)cc2CC(=O)N2CCOCC2)ccc1OCc1nc(-c2ccco2)oc1C`, 132 to 133 °C.
The compound `COC1(c2csc(Sc3ccc(/C(C)=N/O)cc3)n2)CCOCC1` gave a melting point of 146 °C.
Then `CCN(CC)CC1=Cc2ccc(Cl)cc2S1(=O)=O`, with 58 to 59 °C; and `CON=C(Cl)c1ccccc1OCc1ccc(Cl)cc1Cl`, with 91 to 92 °C; and `CCOP(=O)(CN1CCC(N(C)S(=O)(=O)c2ccc(Nc3nccc(Nc4ccc(F)c(F)c4)n3)cc2)CC1)OCC`, with 138 °C.
Take `CC(=O)N1CCN(c2ccc(O)cc2Br)CC1`: the melting point lay in the range of 212 to 214 °C.
The compound `Cc1cc(S(=O)(=O)O)c(NC(=O)Nc2cc3ccccc3[nH]2)cc1Cl` yielded a melting point of 284 to 286 °C.
As to `COc1nc(C)nc(NC(=O)NS(=O)(=O)c2ccccc2C=CCC#N)n1`, the melting point lay within 142 to 143 °C.
For `CNC(=O)ON=C1n2ccnc2S(=O)C1(C)C` (configuration not stated) the value was 148 to 149 °C.
For `CCCn1c(COCC)nc2c(N)nc3ccc(OC4CCN(C(=O)C(C)C)CC4)cc3c21` the value was 177 to 179 °C.
For `Cc1ccc(C#Cc2cc3ccccc3s2)s1` the value was 85 to 87 °C; for `COc1cc(C=CN(C)C)c([N+](=O)[O-])cc1OC`, 125 to 126 °C.
`COc1cc(CNC(=O)c2ccc3n2Cc2ccccc2N(C(=O)COc2ccc(Cl)cc2C)C3)ccc1O` returned a melting point of 167 to 168 °C.
Then `CC(C)(C)OC(=O)NCC(CCn1ccc(=O)[nH]c1=O)COC(c1ccccc1)(c1ccccc1)c1ccccc1` (configuration not stated), with 86 to 88 °C.
For `Cc1[nH]cnc1CN1CCc2c(c3cccc(F)c3n2C)C1=O`, the melting point lay within 230 to 233 °C.
Compound `Nc1cc2nc(N)c(-c3ccccc3Cl)cc2cn1` displayed a melting point of 175 °C.
`c1ccc2c(CCOc3cncc(N4CCNCC4)n3)c[nH]c2c1` gave a melting point of 133 to 135 °C.
For `CSc1c(O)ccc2[nH]ncc12` the value was 126 to 128 °C; for `O=C(O)[C@H](CSc1ccccc1[N+](=O)[O-])N1C(=O)c2ccccc2C1=O`, 220 to 222 °C.
Consider `CCOC(=O)c1csc(-c2ccc3cc4c(cc3c2)C(C)(C)CCC4(C)C)c1`, for which the melting point fell in the range of 107 to 108 °C.
For `CNC(=O)c1ccc(N2CCNCC2)cc1` the value was 154 to 156 °C; for `Clc1cccc2c1CSCCCN2`, 71 to 73 °C.
Compound `O=C(O)CCc1ccc(C(c2cc(F)ccc2F)S(=O)(=O)c2ccc(Cl)cc2)nc1` (configuration not stated) came in with a melting point of 158 to 160 °C.
Turning to `CCOC(=O)CC(=O)Nc1ccc(Cl)cc1`, the melting point is 82 °C.
Then `Cc1cc(-c2c[nH]c(N)n2)ccn1`, with 226 to 228 °C; and `O=C(O)Cc1ccc(Cc2ccccc2CC(=O)O)cc1`, with 155 to 156 °C.
Then `OC1(c2ccc(F)c(F)c2)CCC2(CC1)OCCO2`, with 118 to 120 °C; and `COc1ccc(COc2ccc(Oc3c(C)cc(/C=C/C(=O)N4CCN(Cc5ccc(/C=C/COc6ccc(C)cc6)cc5)CC4)cc3C)nc2)cc1`, with 130 to 132 °C; and `COC(=O)c1ccc(-c2n[nH]c(C)n2)cc1Cl`, with 196 to 198 °C.
Regarding `O=C1NC(=O)C(c2cn3c4c(cccc24)CCC3)C1c1cccc(O)c1` (configuration not stated), the melting point fell in the range of 108 to 110 °C.
Then `Oc1ccc(C=Cc2cccc(O)c2)cc1`, with 213 to 214 °C.
For `C=C=COc1ccccc1S(=O)(=O)NC(=O)Nc1nc(C)nc(OC)n1` the value was 150 to 151 °C; for `O=c1ccsn1Cc1ccc(Cl)cc1`, 88 to 90 °C.
Then `Nc1cc(F)c2c(c1)Cc1cc(F)ccc1-2`, with 119 to 120 °C; and `CNC(=O)N(C)c1nc(CC(=O)Nc2cccc(C(F)(F)F)c2)cs1`, with 125 to 127 °C; and `CC(C)(C)c1ccc(COc2cc(C(O)C#Cc3ccc(C(=O)O)cc3)cc3c2C(C)(C)CCC3(C)C)cc1` (configuration not stated), with 254 °C.
The compound `CCOC(=O)c1nc2sc(C(C)C)cc2c(=O)[nH]1` gave a melting point of 182 to 183 °C.
For `Cc1cc(SCc2ccc(OCc3ccc(C(F)(F)F)cc3)cc2)c2c(c1OCC(=O)O)CCC2` the value was 165 to 167 °C; for `O=C1C(Br)=CC2(C=C1Br)CCNC1=C2C2=NCCc3c[nH]c(c32)C1=O`, greater than 360 °C.
With `CC(C(=O)N(C)C)n1nc(-c2ccccc2)c(Br)c1Br` (configuration not stated), the melting point was in the range of 132 to 134 °C.
For `c1ccc2c(NC3CCCCC3)nnc(Cc3ccncc3)c2c1` the value was 137 to 139 °C.
Then `Cc1ccc(O)c(Cn2c(NC3CCNC(CCN4CCOCC4)C3)nc3ccc(CCc4ccccc4)cc32)n1` (configuration not stated), with 159 °C.
For `CC(C)(CS(=O)(=O)c1ccc(Cl)cc1)C(=O)C(Oc1ccc(Cl)cc1)n1cncn1` (configuration not stated), the melting point was in the range of 55 to 60 °C.
Then `COc1cccc2c3c(n(C)c12)SCCC3=O`, with 106 to 108 °C; and `CCC(C)(C)c1cc(C(C)c2cc(C(C)(C)CC)cc(C(C)(C)CC)c2O)c(O)c(C(C)(C)CC)c1`, with 116 to 118 °C; and `COc1ccc(-n2cc(-c3cccc(C(=O)O)n3)cn2)cc1`, with 122 to 123 °C.
Then `Cc1cc(NC2=NCCN2)n(-c2ccccc2C)n1`, with 168 to 169 °C; and `CCCCc1sc(C(N)=O)c2c1-c1c(cnn1C)CC2`, with 119 to 121 °C.
For `CCOCn1c(N(C(C)=O)c2cc(C)cc(C)c2)c(CC)c(=O)[nH]c1=O` the value was 182 to 183 °C; for `COc1cc(NC(=O)CC#N)c(Cl)cc1Cl`, 180 to 181 °C.
In turn, `CCOC(=O)c1cnc(C)nc1-c1ccc(OC)c(OC)c1` registered a melting point of 98 to 100 °C.
Then `Cc1nnc(-c2ccc3occ(-c4cnn(C)c4)c3c2)o1`, with 147 to 148 °C; and `O=c1[nH]c2sc3ccc(C(F)(F)F)cc3c2[nH]c1=O`, with greater than 320 °C.
Then `COc1cc(Nc2c(C#N)cnc3cc4cc(OC)c(OCCN5CCOCC5)cc4cc23)c(Cl)cc1F`, with 204 to 214 °C; and `COc1ccc(S(=O)(=O)N2Cc3ccccc3N(C(=O)c3ccc(OC)cc3OC)CC2C(=O)NO)cc1` (configuration not stated), with 189 to 191 °C; and `CC(C)c1ccc(-c2ccc(-c3cccc(C(=O)O)c3)s2)cc1`, with 233 to 235 °C.
For `Cc1cccc(COc2cccc(OCc3ccc(C(C)C)cc3)c2)c1C(=O)O` the value was 132 to 133 °C; for `CC(C)(C)OC(=O)NCC1(O)CCNCC1`, 136 to 138 °C; for `C=CCc1c(-c2ccc(C#N)cc2)[nH]c2cc(C#N)ccc12`, 217 to 221 °C.
Turning to `CCn1nc(C)c2c(Cl)cc(-c3ccccc3)nc21`, the melting point fell in the range of 101 to 103 °C.
The compound `CCn1nc(-c2ccc(Cl)cc2[N+](=O)[O-])c2c1CCCC2=O` displayed a melting point of 184 °C.
For `CC(C)Oc1cc(/C=C/C(=O)O)n(Cc2ccc(Cl)cc2Cl)n1` the value was 170 to 171 °C.
Then `CCCC(C)SC(=O)c1ccc(NC(=O)NC)cc1Cl` (configuration not stated), with 89 to 95 °C; and `COc1ccc(-c2cccc3nc(Nc4cc(OC)c(OC)c(OC)c4)oc23)cn1`, with 192 to 193 °C.
Then `CC1(C)CC(N2CCCC2)=CC(=C(C#N)C(O)C#N)C1` (configuration not stated), with 246 to 247 °C; and `CCOC(=O)CNc1cnc(-c2ccc(OCc3ccccc3)c(C34CC5CC(CC(C5)C3)C4)c2)nc1`, with 153 to 156 °C.
In turn, `Oc1ccc(Oc2ccc(I)cc2)cc1` registered a melting point of 119 to 121 °C.
In the case of `CCCN(CCC)C(=O)n1cnc(S(C)(=O)=O)n1`, the melting point came out at 94 °C.
The compound `Clc1ccc(OCc2noc(-c3ccccc3)n2)cc1` returned a melting point of 96 to 102 °C.
Then `Oc1ccc(OCc2ccccc2)c(Cl)c1`, with 49 to 51 °C; and `CCOC(=O)CCCCc1cn(C(c2ccccc2)(c2ccccc2)c2ccccc2)cn1`, with 84 to 86 °C; and `N#Cc1cccc(CCC(=O)c2c(O)c3cccnc3n(-c3ccccc3)c2=O)c1`, with 219 to 220 °C.
In the case of `COC(=O)COc1c(OC)cc(C=O)cc1OC`, the melting point is 99 to 100 °C.
Regarding `CNc1ncc2c(=O)n(C)c(=O)n(C)c2n1`, the melting point came to 260 °C.
For `COc1cc(C=O)ccc1OCCCCCCOC(C)=O` the value was 74 to 75 °C; for `CN1CCCC1=NC(=O)Nc1cccc(Cl)c1`, 135 to 136 °C.
Then `O=C1NC(N2CCCCC2)=N/C1=C\c1c[nH]c2ncc(Cl)cc12`, with 315 to 320 °C; and `CCc1c(C)[nH]c(=O)c(N)c1Cc1cc(C)cc(C)c1`, with 204 to 205 °C.
